US20020159981A1, “Methods of controlling proliferation and differentiation of stem and progenitor cells” (Gamida-Cell Ltd., priority 1999, published 2002)

What was measured:
[1] = tested on: Cord blood-derived CD34 cells; test: Long-term liquid culture of CD34 cells: proliferation, CFUc, differentiation status; type: cell-based, human
Method: Culture procedures: For the expansion of progenitor cells, CD34^+ enriched fractions or unseparated mononuclear cells were seeded at about 1-3×10^4 cells/ml in either alpha minimal essential medium containing 10% preselected fetal calf serum (FCS) (both from GIBCO, Grand Island, N.Y.), or serum-free medium (Progenitor-34 medium, Life Technologies, Grand Island, N.Y.). The media were supplemented with a mixture of growth factors and transition metal chelators. The cultures were incubated at 37° C. in an atmosphere of 5% CO2 in air with extra humidity. Half of the medium was changed weekly with fresh medium containing all the supplements.
Cloning potential evaluations: The cloning potential of cells developed in the liquid culture was assayed, at different intervals, in semi-solid medium. The cells were washed and seeded in 35 mm dishes in methylcellulose containing alpha medium supplemented with recombinant growth factors (SCF, G-CSF, GM-CSF and EPO). Following 2 weeks incubation, the cultures were scored with an inverted microscope. Colonies were classified as blast, mixed, erythroid, myeloid, and megakaryocytic, according to their cellular composition.
Morphological assessment: In order to characterize the resulting culture populations, aliquots of cells were deposited on a glass slide (cytocentrifuge, Shandon, Runcorn, UK), fixed and stained in May-Grunwald Giemsa. Other aliquots were stained by benzidine for intracellular hemoglobin.
TEPA effects on proliferation and clonability of long-term CD34^+ cultures: Long-term cultures were maintained for 3-5 weeks by weekly demi-depopulation (one half of the culture volume was removed and replaced by fresh medium and cytokines).
CD34^+ cells derived from human neonatal cord blood were purified by immunomagnetic method and then cultured in liquid medium supplemented with cytokines either with or without transition metal chelators. At weekly intervals, the cultures were demi-depopulated by removing half of the culture content (supernatant and cells) and replacing it with fresh medium, cytokines and the chelators. At the indicated weeks the cellular content of the cultures were quantified for total cells (by a manual microscopic/hemocytometric method), for CD34^+ cells (by immuno-flow cytometry) and for clonogenic cells (by cloning the cells in cytokine-supplemented semi-solid medium). The cultures were initiated with 1×10^4 cells, 50-80% of which were CD34^+ and 25-50% of which were CFUc. The results presented in FIGS. 11 to 24 were calculated per 1×10^4 initiating cells (the numbers were multiplied by the dilution factors).

[2] = tested on: Murine erythroleukemia cells (MEL); test: HMBA-induced differentiation and growth of erythroleukemic cells; type: cell-based, mouse; conditions: day 3 (Table 2)
Method: Mouse erythroleukemic cells (MEL): MEL cells are erythroblast like cells. Following treatment with several chemicals (differentiation inducers) the cells undergo erythroid differentiation and accumulate hemoglobin. […] At day 3 of the culture, the total number of cells and the percentage of hemoglobin-containing cells were determined (Table 2).
On day 3, total cell number and hemoglobin containing (benzidine positive) cells were determined.

Cord blood-derived cells = test: Preservation of stem cells: storage and separation with TEPA, then long-term culture; type: cell-based; conditions: cells stored 24 hours at 4° C. and separated with 10 μM TEPA; without TEPA 5 weeks
Method: Cord blood-derived cells were collected and stored (unseparated) for 24 hours, at 4° C., either in the presence or absence of 10 μM TEPA. CD34^+ cells were then separated using either 10 μM TEPA-PBS buffer or TEPA free PBS buffer, respectively. Then, cells were grown in long-term cultures in the presence of 10 μM TEPA.

Hepatocytes = test: Ex-vivo expansion of hepatocytes; type: cell-based, BALB/c mice; conditions: 15 μg/ml TEPA, five weeks (FIGS. 27a-d)
Method: Hepatocytes: Livers were dissected from anesthetized BALB/c mice with sterile tools and immersed into F12 culture medium (Biological Industries, Kibbutz Bet Ha'Emek, Israel). The livers were washed three times with 3% BSA/PBS buffer and minced into small pieces with seizures. Following three washes with 3% BSA/PBS the liver tissue pieces were incubated for 30 minutes with 0.05% collagenase at 37° C. with continues shaking under 5% CO2 atmosphere. The digested liver tissue pieces were than mashed by pressing through a fine mesh strainer. After three washes with 3% BSA/PBS the liver cells were seeded into F12 culture medium enriched with: 15 mM HEPES buffer, […], 10 mM sodium bicarbonate, 0.5 u/ml insulin, 7.5 ng/ml hydrocortisone and with or without 15 μg/ml of TEPA and incubated at 37° C. in a 5% CO2 atmosphere. After overnight incubation the medium was removed and the cells were supplemented with fresh enriched F12 medium as described above with or without 15 μg/ml of TEPA. Hepatocytes were incubated in 35 mm dishes for several weeks with enriched F12 culture medium with or without 15 μg/ml TEPA at 37° C. under 5% CO2 atmosphere. Cell culture medium was replaced every week with a fresh medium.

[3] = tested on: lethally irradiated Balb/c×C57B1/6 F1 mice; test: Hematopoietic reconstitution of lethally irradiated mice with ex-vivo expanded bone marrow cells; type: in vivo; conditions: compared to fresh cells or cells expanded without TEPA
Method: Hematopoietic reconstitution of lethally irradiated mice—fresh vs. ex-vivo expanded cells: Three month old female Balb/c×C57B1/6 F1 mice were lethally irradiated (1000 rad) and transplanted one day later with 1×10^5 fresh bone marrow cells or the yield of 1×10^5 bone marrow cells expanded ex-vivo either with or without TEPA for 3 to 5 weeks, as detailed in Table 7. Peripheral blood WBC counts were performed on weekly basis.

## NCCNCCNCCNCCN [TEPA, tetraethylenepentamine]
[1]
  activity on differentiation of CD34^+ cells: inhibit differentiation
[1]; 3-5 weeks, early or early and late cytokines, compared to cytokines only (FIGS. 3, 4)
  clonability in long-term cultures: higher clonability
[1]; G-CSF and GM-CSF 10 ng/ml each, CFUc frequency (FIG. 15)
  differentiation stimulatory effect of G-CSF and GM-CSF: blocked
[1]; after 6 weeks, started with 2.5×10^3 CFUc, TEPA 10 μM
  CFUc in culture upon termination: 300×10^3 CFUc
[1]; early-acting cytokines, no stromal cells, TEPA 10 μM (FIG. 11)
  time cultures could be maintained: > 6 weeks
[1]; long term cultures (FIGS. 21a-b)
  effectiveness among polyamine chelating agents: more effective than the short-chain polyamines
[1]; long-term cultures (FIGS. 21, 22)
  cell proliferation and generation of CFUc in long-term cultures: support continuous cell proliferation and long-term generation of CFUc and to delay cell differentiation
[1]; polyamine chelating agents, weeks 3, 4, 6, 7 (FIGS. 21a-b)
  concentrations with optimal activity: 40 µM
[1]; transition metal chelating agents, weeks 4, 5, 7 (FIGS. 22a-b)
  concentrations with optimal activity: 10 µM
[2]
  HMBA-induced differentiation of MEL cells: inhibited
Cord blood-derived cells
  time cultures expanded: 8 weeks
Hepatocytes
  state of hepatocytes cultures: contained many dividing and undifferentiated cells
[3]
  WBC recovery: faster
